Some test systems named below: SNB-19; SR; HCT-116; SW-620; SN12C; RPMI-8226; OVCAR-4; Malme-3M; SK-MEL-28; SK-MEL-2; HCC 2998; UO-31; K562; PC-3; SF-295; MDA-MB-231; HT-29; A549; BT-549; IGROV-1.
Common to all, as to assay: inhibition of tumour cell growth, NCI panel, 48 h

Data on seven compounds can be found in ChEMBL document CHEMBL1201862, “PubChem BioAssay data set” (2004).

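Cultured in 96-well plates, cells were exposed to test compound for 48 hours across five concentrations. At the GI50, growth is halved.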 The source made the active and inactive calls. Cut-off read from the data, not from the text of the source: active = GI50 up to about 1.1 µM and inactive = higher.

Turning to `CC(C)C(=O)C(C)(C)CCc1ccccn1`, the GI50 in the experiment on SNB-19, in the experiment with SR, in the experiment with HCT-116, with SW-620, with SN12C and with RPMI-8226 was > 100 µM (inactive) throughout. The GI50 in the experiment with OVCAR-4, in the experiment on Malme-3M, in the experiment with SK-MEL-28, in the experiment with SK-MEL-2, in the experiment on HCC 2998 and with UO-31 was > 100 µM (inactive) throughout. Also, the GI50 in the experiment with K562, with PC-3, in the experiment with SF-295, in the experiment with MDA-MB-231, in the experiment with HT-29 and in the experiment on A549 was > 100 µM (inactive) in each case. In addition, the GI50 with BT-549 and in the experiment with IGROV-1 was > 100 µM (inactive) in each case.
As for `Cc1nc(N)nc(S)c1CCC(=O)O`, the GI50 in the experiment with SNB-19, with SR, in the experiment on HCT-116, in the experiment with SW-620, in the experiment with SN12C and in the experiment with RPMI-8226 was > 100 µM (inactive) in each case. Further, the GI50 with OVCAR-4, with Malme-3M, with SK-MEL-28, in the experiment on SK-MEL-2, with HCC 2998 and with UO-31 was > 100 µM (inactive) throughout. In addition, the GI50 with K562, in the experiment with PC-3, in the experiment with SF-295, with MDA-MB-231, in the experiment on HT-29 and in the experiment with A549 was > 100 µM (inactive) each time. Also, the GI50 with BT-549 and with IGROV-1 was > 100 µM (inactive) in each case.
In the case of `c1ccc2c(c1)nc1n2C2CCC(C2)N1` (stereo not given), the GI50 in the experiment on SNB-19, in the experiment with SR, with HCT-116, in the experiment with SW-620, with SN12C and in the experiment on RPMI-8226 was > 10 µM (inactive) in each case. The GI50 in the experiment on OVCAR-4, in the experiment on Malme-3M, with SK-MEL-28, in the experiment with SK-MEL-2, in the experiment on HCC 2998 and with UO-31 was > 10 µM (inactive) each time. Also, the GI50 in the experiment with K562, in the experiment on PC-3, with SF-295, with MDA-MB-231, with HT-29 and in the experiment on A549 was > 10 µM (inactive) in each case. Besides, the GI50 in the experiment on BT-549 and with IGROV-1 was > 10 µM (inactive) throughout.
In the case of `CCOC(=O)C1CCC/C1=N\NC(=N)N.Cc1cc(O)c(C(C)C)cc1S(=O)(=O)O` (stereo not given), the GI50 with SNB-19, in the experiment on SR, in the experiment with HCT-116, in the experiment with SW-620, in the experiment on SN12C and in the experiment on RPMI-8226 was > 100 µM (inactive) throughout. The GI50 with OVCAR-4, with Malme-3M, in the experiment on SK-MEL-28, with SK-MEL-2, in the experiment on HCC 2998 and in the experiment on UO-31 was > 100 µM (inactive) throughout. In addition, the GI50 with K562, with PC-3, in the experiment on SF-295, in the experiment on MDA-MB-231, in the experiment on HT-29 and in the experiment on A549 was > 100 µM (inactive) in each case. In addition, the GI50 in the experiment with BT-549 and in the experiment on IGROV-1 was > 100 µM (inactive) each time.
For the compound `Cc1sc2nc3n(c(=O)c2c1C)N=CN(c1ccccc1)C3`, the GI50 in the experiment on SNB-19 was 35.5 µM (inactive); with SR it was > 100 µM (inactive); in the experiment on HCT-116, > 100 µM (inactive); in the experiment on SW-620, > 100 µM (inactive); in the experiment on SN12C, > 100 µM (inactive); in the experiment with RPMI-8226, > 100 µM (inactive). Further, the GI50 in the experiment on OVCAR-4 was 30.1 µM (inactive); in the experiment on Malme-3M, 32 µM (inactive); with SK-MEL-28, > 100 µM (inactive); in the experiment with SK-MEL-2, > 100 µM (inactive); with HCC 2998, 60.5 µM (inactive); in the experiment with UO-31 it was > 100 µM (inactive). Also, the GI50 in the experiment with K562 is > 100 µM (inactive); with PC-3 it was > 100 µM (inactive); with SF-295, 84.9 µM (inactive); in the experiment with MDA-MB-231 it was 68.1 µM (inactive); with HT-29 it was > 100 µM (inactive); in the experiment on A549, > 100 µM (inactive). Further, the GI50 in the experiment on BT-549 and in the experiment on IGROV-1 was > 100 µM (inactive) in each case.
`CCSc1nnc(Sc2c3ccccc3nc3ccccc23)s1`: the GI50 was 44.2 µM (inactive) in the experiment with SNB-19; 3.19 µM (inactive) with SR; 7.41 µM (inactive) in the experiment with HCT-116; 5.45 µM (inactive) in the experiment with SW-620; 15.2 µM (inactive) with SN12C; 3.91 µM (inactive) in the experiment with RPMI-8226. The GI50 was 16.9 µM (inactive) in the experiment with OVCAR-4; 7.01 µM (inactive) with Malme-3M; 17.5 µM (inactive) with SK-MEL-28; 22.3 µM (inactive) with SK-MEL-2; 11.8 µM (inactive) in the experiment with HCC 2998; 10.7 µM (inactive) in the experiment on UO-31. Besides, the GI50 was 3.8 µM (inactive) in the experiment on K562; 20.3 µM (inactive) in the experiment with PC-3; 99.3 µM (inactive) in the experiment with SF-295; 18.8 µM (inactive) in the experiment with MDA-MB-231; 7.67 µM (inactive) with HT-29; > 60.7 µM (inactive) in the experiment on A549. The results for the GI50 in the experiment on BT-549 and in the experiment on IGROV-1 were 17.6 µM (inactive) and 17.3 µM (inactive), respectively.
On to `C=C1C(=O)OC2C(C)C3C=CC(=O)[C@@]3(C)C(OC(=O)/C(C)=C/C)C1[C@@H]2OC(C)=O` (stereo not given in full), for which the GI50 is 1.89 µM (inactive) with SNB-19; 0.168 µM (active) with SR; 0.319 µM (active) with HCT-116; 0.257 µM (active) in the experiment with SW-620; 0.468 µM (active) with SN12C; 0.486 µM (active) with RPMI-8226. Moreover, the GI50 in the experiment on OVCAR-4 was 0.822 µM (active); in the experiment on Malme-3M it was 0.221 µM (active); in the experiment on SK-MEL-28, 0.593 µM (active); with SK-MEL-2, 0.278 µM (active); in the experiment with HCC 2998 it was 1.75 µM (inactive); with UO-31, 1.21 µM (inactive). Besides, the GI50 in the experiment with K562 was 0.374 µM (active); in the experiment on PC-3, 0.522 µM (active); in the experiment with SF-295, 1.43 µM (inactive); in the experiment on MDA-MB-231 it was 0.259 µM (active); in the experiment with HT-29 it was 0.486 µM (active); with A549, 1.67 µM (inactive). Moreover, the values for the GI50 in the experiment on BT-549 and in the experiment on IGROV-1 were 0.28 µM (active) and 0.78 µM (active), respectively.
